In patent US20070213339A1 (Bayer Pharmaceuticals Corporation, priority 2004, published 2007):
pIC50: −log10 of the molar value.

The compounds below were run on Colo205 human colon carcinoma cell line (assay: In vitro tumor cell proliferation assay (MTS, CellTiter 96 Aqueous One Solution)). Conditions: COLO 205, Colo205 cells, 72 hours compound exposure, MTS absorbance at 490 nm, read-out: IC50 (concentration of test compound required to inhibit proliferation of 50% of the cells).
Type: cell-based
Summary of the method: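 Colo205 cells seeded at 2000 cells/well in RPMI-1640 with 10% serum, exposed to compound for 72 h at 37 °C, 5% CO2, in a 5-point dose-response up to 10-20 μM. Viability read by MTS absorbance at 490 nm; IC50 from background-corrected percent inhibition by linear regression.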

pIC50 | Structure (SMILES)
5.70 to 6.30 | O=C(O)c1cn(-c2ccc(CN3CCCC3)cc2)c2c(Cl)c(N3CCN(c4ccc(F)cc4F)CC3)c(F)cc2c1=O [Example 8, 8-chloro-7-[4-(2,4-difluorophenyl)piperazin-1-yl]-6-fluoro-4-oxo-1-[4-(pyrrolidin-1-ylmethyl)phenyl]-1,4-dihydroquinoline-3-carboxylic acid]
4.70 to 5.70 | O=C(O)c1cn(-c2cccc(CN3CCCCC3)c2)c2c(OC(F)(F)F)c(N3CCN(c4ccc(F)cc4F)CC3)c(F)cc2c1=O [Example 142, 7-[4-(2,4-difluorophenyl)piperazin-1-yl]-6-fluoro-4-oxo-1-[3-(piperidin-1-ylmethyl)phenyl]-8-(trifluoromethoxy)-1,4-dihydroquinoline-3-carboxylic acid]
> 6.30 | COc1c(N2CCN(c3cccc(Cl)c3)CC2)c(F)cc2c(=O)c(C(=O)O)cn(-c3ccc(CN(C)C)cc3)c12 [Example 98, 7-[4-(3-chlorophenyl)piperazin-1-yl]-1-{4-[(dimethylamino)methyl]phenyl}-6-fluoro-8-methoxy-4-oxo-1,4-dihydroquinoline-3-carboxylic acid]
5.70 to 6.30 | COCCN(C)Cc1ccc(-n2cc(C(=O)O)c(=O)c3cc(F)c(N4CCN(c5ccccn5)CC4)c(Cl)c32)cc1 [Example 55]
> 6.30 | CC1CCC(C)N1Cc1ccc(-n2cc(C(=O)O)c(=O)c3cc(F)c(N4CCN(c5ccccn5)CC4)c(Cl)c32)cc1 (centres unmarked) [Example 19, 8-chloro-1-{4-[(2,5-dimethylpyrrolidin-1-yl)methyl]phenyl}-6-fluoro-4-oxo-7-(4-pyridin-2-ylpiperazin-1-yl)-1,4-dihydroquinoline-3-carboxylic acid]
> 6.30 | CCN(C)Cc1ccc(-n2cc(C(=O)O)c(=O)c3cc(F)c(N4CCN(c5ccc(Cl)cc5)CC4)c(OC(F)(F)Cl)c32)cc1 [Example 168, 8-[chloro(difluoro)methoxy]-7-[4-(4-chlorophenyl)piperazin-1-yl]-1-(4-{[ethyl(methyl)amino]methyl}phenyl)-6-fluoro-4-oxo-1,4-dihydroquinoline-3-carboxylic acid]
> 6.30 | CCN(CC)Cc1ccc(-n2cc(C(=O)O)c(=O)c3cc(F)c(N4CCN(c5ccccc5C#N)CC4)c(OC(F)(F)Cl)c32)cc1 [Example 162, 8-[chloro(difluoro)methoxy]-7-[4-(2-cyanophenyl)piperazin-1-yl]-1-{4-[(diethylamino)methyl]phenyl}-6-fluoro-4-oxo-1,4-dihydroquinoline-3-carboxylic acid]
5.70 to 6.30 | CCN(CC)Cc1ccc(-n2cc(C(=O)O)c(=O)c3cc(F)c(N4CCN(c5ccccc5[N+](=O)[O-])CC4)c(OC)c32)cc1 [Example 107, 1-{4-[(diethylamino)methyl]phenyl}-6-fluoro-8-methoxy-7-[4-(2-nitrophenyl)piperazin-1-yl]-4-oxo-1,4-dihydroquinoline-3-carboxylic acid]

More lines, now with the values behind:

Structure (SMILES) | pIC50
CN(C)Cc1ccc(-n2cc(C(=O)O)c(=O)c3cc(F)c(N4CCN(c5ccccn5)CC4)c(OC(F)(F)Cl)c32)cc1 [Example 154, 8-[chloro(difluoro)methoxy]-1-{4-[(dimethylamino)methyl]phenyl}-6-fluoro-4-oxo-7-(4-pyridin-2-ylpiperazin-1-yl)-1,4-dihydroquinoline-3-carboxylic acid] | > 6.30
CON(C)Cc1ccc(-n2cc(C(=O)O)c(=O)c3cc(F)c(N4CCN(c5ccccc5C#N)CC4)c(Cl)c32)cc1 [Example 53, 8-chloro-7-[4-(2-cyanophenyl)piperazin-1-yl]-6-fluoro-1-(4-{[methoxy(methyl)amino]methyl}phenyl)-4-oxo-1,4-dihydroquinoline-3-carboxylic acid] | 4.70 to 5.70
COc1cc(CN2CCCC2)ccc1-n1cc(C(=O)O)c(=O)c2cc(F)c(N3CCN(c4ccc(F)cc4)CC3)c(Cl)c21 [Example 176, 8-chloro-6-fluoro-7-[4-(4-fluorophenyl)-piperazine-1-yl]-1-(2-methoxy-4-pyrrolidin-1-ylmethyl-phenyl)-4-oxo-1,4-dihydroquinoline-3-carboxylic acid] | > 6.30
O=C(O)c1cn(-c2cccc(CN3CCCCC3)c2)c2c(OC(F)(F)F)c(N3CCN(c4ccccn4)CC3)c(F)cc2c1=O [Example 140, 6-fluoro-4-oxo-1-[3-(piperidin-1-yl-methyl)phenyl]-7-(4-pyridin-2-ylpiperazin-1-yl)-8-(trifluoromethoxy)-1,4-dihydroquinoline-3-carboxylic acid] | 5.70 to 6.30
O=C(O)c1cn(-c2ccc(CN3CCCC3)cc2)c2c(OC(F)(F)F)c(N3CCN(c4cccc(Cl)c4)CC3)c(F)cc2c1=O [Example 119, 7-[4-(3-chlorophenyl)piperazin-1-yl]-6-fluoro-4-oxo-1-[4-(pyrrolidin-1-ylmethyl)phenyl]-8-(trifluoromethoxy)-1,4-dihydroquinoline-3-carboxylic acid] | > 6.30
Cc1ccc(N2CCN(c3c(F)cc4c(=O)c(C(=O)O)cn(-c5ccc(CN6CCCC6)cc5)c4c3OC(F)(F)Cl)CC2)cc1C [Example 151, 8-[chloro(difluoro)methoxy]-7-[4-(3,4-dimethylphenyl)piperazin-1-yl]-6-fluoro-4-oxo-1-[4-(pyrrolidin-1-ylmethyl)phenyl]-1,4-dihydroquinoline-3-carboxylic acid] | > 6.30
CCN(CC)Cc1ccc(-n2cc(C(=O)O)c(=O)c3cc(F)c(N4CCN(c5ccc(C(F)(F)F)cc5)CC4)c(OC)c32)cc1 [Example 112, 1-{4-[(diethylamino)methyl]phenyl}-6-fluoro-8-methoxy-4-oxo-7-{4-[4-(trifluoromethyl)phenyl]piperazin-1-yl}-1,4-dihydroquinoline-3-carboxylic acid] | 4.70 to 5.70
N#Cc1ccccc1N1CCN(c2c(F)cc3c(=O)c(C(=O)O)cn(-c4ccc(CN5CCCC5)nc4)c3c2Cl)CC1 [Example 36, 8-chloro-7-[4-(2-cyanophenyl)piperazin-1-yl]-6-fluoro-4-oxo-1-[6-(pyrrolidin-1-ylmethyl)pyridin-3-yl]-1,4-dihydroquinoline-3-carboxylic acid] | 5.70 to 6.30
COc1c(N2CCN(c3ccc(F)cc3)CC2)c(F)cc2c(=O)c(C(=O)O)cn(-c3ccc(CN(C)C)cc3)c12 [Example 93, 1-{4-[(dimethylamino)methyl]phenyl}-6-fluoro-7-[4-(4-fluorophenyl)piperazin-1-yl]-8-methoxy-4-oxo-1,4-dihydroquinoline-3-carboxylic acid] | > 6.30
COc1c(N2CCN(c3ccc(C#N)cc3)CC2)c(F)cc2c(=O)c(C(=O)O)cn(-c3ccc(CN(C)C)cc3)c12 [Example 102, 7-[4-(4-cyanophenyl)piperazin-1-yl]-1-{4-[(dimethylamino)methyl]phenyl}-6-fluoro-8-methoxy-4-oxo-1,4-dihydroquinoline-3-carboxylic acid] | > 6.30
COc1ccccc1N1CCN(c2c(F)cc3c(=O)c(C(=O)O)cn(-c4ccc(CN5CCCC5)cc4)c3c2OC)CC1 [Example 83, 6-fluoro-8-methoxy-7-[4-(2-methoxyphenyl)-piperazin-1-yl]-4-oxo-1-[4-(pyrrolidin-1-ylmethyl)phenyl]-1,4-dihydroquinoline-3-carboxylic acid] | 5.70 to 6.30
CN(C)CCc1ccc(-n2cc(C(=O)O)c(=O)c3cc(F)c(N4CCN(c5ccc(Cl)cc5)CC4)c(Cl)c32)cc1 [Example 70, 8-chloro-7-[4-(4-chlorophenyl)piperazin-1-yl]-1-{4-[2-(dimethylamino)ethyl]phenyl}-6-fluoro-4-oxo-1,4-dihydroquinoline-3-carboxylic acid] | 5.70 to 6.30
